Reference: patent US9304132B2, “Molecular delivery with nanowires” (President and Fellows of Harvard College, priority 2009, dated 2016)

How the values were obtained:
Format in all cases: cell-based
[1] = tested on: neural precursor cells (NPCs); assay: Control over growth and differentiation of neural precursor cells on Ara-C coated Si NWs (immunofluorescence)
Method: Si NWs were grown on a Si substrate via CVD. Substrates were first prepared by immobilizing Au nanoparticles on a precleaned Si (111) substrate using a thin polyelectrolyte layer as previously described (J. Am. Chem. Soc. 2008, 130, 6252-6258; Nano Lett. 2004, 4, 1987-1990; J. Am. Chem. Soc. 2001, 123, 9769-9779; J. Am. Chem. Soc. 2008, 130, 6252-6258). Si NWs were then synthesized by the vapor transport method using SiCl4 as the precursor for Si NW growth and H2 (10%) in argon as the carrier gas with minor modifications from that which was previously reported (Nano Lett. 2005, 5, 457-460). Briefly, a Si (111) substrate, covered with Au nanoparticles patterned into stripes by flowing a solution of 70 nm Au nanoparticles across poly-l-lysine coated silicon using PDMS microfluidic channels, was placed inside a 1″ diameter quartz tube and loaded at the center of a 12″ horizontal tube furnace (Lindberg/Blue M). After the quartz tube was evacuated and flushed repeatedly with H2 (10%) in argon gas mixture to minimize oxygen contamination, it was charged with H2 (10%) in argon gas up to 760 torr and the pump line was quickly replaced with a line that enabled venting through a bubbler filled with a saturated K2CO3 aqueous solution, meant to trap the byproduct of SiCl4 decomposition, gaseous HCl. […]

HeLa cells = assay: Apoptosis assay (TUNEL / Annexin V) of HeLa cells on inhibitor-coated Si NWs after actinomycin-D and TNF-α; conditions: Si NWs treated with 100 mM inhibitor; actinomycin-D 1 μg/mL, TNF-α 2 ng/mL; cells on uncoated NWs died
Method: The silanized Si NWs (produced via CVD prior to silanization) were treated with 100 mM Ac-DEVD-CHO, an apoptosis inhibitor, in PBS at room temperature for 1 hr, and washed in PBS three times for 2 min each. HeLa cells (5×10^4 cells/mL) in DMEM media were added onto the Si NWs, and cultured in a CO2 incubator at 37° C. overnight. The cell treated Si NWs were then transferred into a fresh DMEM media containing actinomycin-D at the final concentration of 1 μg/mL, and incubated in a CO2 incubator at 37° C. for 30 min, followed by addition of TNF-α at the final concentration of 2 ng/mL. After incubation in CO2 incubator at 37° C. for indicated hours, the cells on the Si NWs were assayed for apoptosis.
Cells were analyzed for apoptosis by the Terminal Deoxynucleotide Transferase dUTP Nick End Labeling (TUNEL) assay or by the Annexin V assay. TUNEL staining was performed using the apoptosis detection kit according to the manufacturer's protocol with minor modifications. […] After blocking, streptavidin-Cy3 at 20 μg/mL and WGA Alexa Fluor 488 at 50 μg/mL were incubated with the Si NWs for 30 min at room temperature, and washed in PBC three times for 5 min each, followed by examination under a fluorescence microscope. […] After incubation for 15 min at room temperature and washes in binding buffer three times for 1 min each, cells were analyzed under a fluorescence microscope.

[2] = tested on: Mouse embryonic stem cells (mES cells); assay: Si NW delivery into mouse embryonic stem cells; conditions: delivered by Si NWs
Method: Mouse embryonic stem cells (mES cells) were also used in this study. Delivery of molecules (including Cre Recombinase proteins) into mES cells was carried out in a manner similar to that described in Example 3.

Nc1ccn([C@@H]2O[C@H](CO)[C@@H](O)[C@@H]2O)c(=O)n1 [Ara-C, Cytarabine]
proliferation of glial-like cell plated atop Ara-C coated NWs ([1]; Ara-C 1 mg/mL, 5 uL coated on silanized CVD Si NWs, examined on sixth day): survived but did not proliferate
cell type mixture in regions containing NWs ([1]; Ara-C coated NWs, regions without NWs showed only mitotic cell types, sixth day): neuron heavy

Ac-DEVD-CHO
cell survival after apoptosis induction (HeLa cells): survived

B1: Cre Recombinase proteins: Cre Recombinase proteins delivered by Si NWs into mES cells (protein, UniProt P06956 1-343, looked up)
Recombinase cre: MSNLLTVHQNLPALPVDATSDEVRKNLMDMFRDRQAFSEHTWKMLLSVCRSWAAWCKLNNRKWFPAEPEDVRDYLLYLQARGLAVKTIQQHLGQLNMLHRRSGLPRPSDSNAVSLVMRRIRKENVDAGERAKQALAFERTDFDQVRSLMENSDRCQDIRNLAFLGIAYNTLLRIAEIARIRVKDISRTDGGRMLIHIGRTKTLVSTAGVEKALSLGVTKLVERWISVSGVADDPNNYLFCRVRKNGVAAPSATSQLSTRALEGIFEATHRLIYGAKDDSGQRYLAWSGHSARVGAARDMARAGVSIPEIMQAGGWTNVNIVMNYIRNLDSETGAMVRLLEDGD
EGFP expression in transgenic foxed-eGFP mES cells [2]: expressed EGFP
